Results published in US11944622B2 (Annapurna Bio, Inc., priority 2018, dated 2024).

These compounds were tested against T1, APJ Receptor (Homo sapiens, UniProt P35414) (assay: APJ cAMP assay (DiscoverX enzyme fragment complementation; inhibition of forskolin-stimulated cAMP)). Details: CHO-K1 cell line stably expressing the APJ Receptor; EC80 forskolin; 30 minutes at 37° C.; read-out: Potency Range (APJ cAMP EC50).
T1 sequence (P35414 1-380): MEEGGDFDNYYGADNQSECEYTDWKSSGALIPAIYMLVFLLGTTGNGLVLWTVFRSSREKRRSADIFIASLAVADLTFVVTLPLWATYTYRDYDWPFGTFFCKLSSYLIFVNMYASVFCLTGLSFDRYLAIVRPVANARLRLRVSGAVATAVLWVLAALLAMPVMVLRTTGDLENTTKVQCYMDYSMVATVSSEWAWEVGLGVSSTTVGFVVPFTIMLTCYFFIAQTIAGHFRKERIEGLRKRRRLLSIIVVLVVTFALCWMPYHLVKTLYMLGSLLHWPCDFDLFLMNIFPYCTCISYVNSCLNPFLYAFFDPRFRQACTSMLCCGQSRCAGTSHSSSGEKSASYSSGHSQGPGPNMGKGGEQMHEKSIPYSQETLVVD
Type: cell-based
Outline: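 CHO-K1 cells stably expressing APJ incubated with compound plus EC80 forskolin for 30 min at 37° C. cAMP detected by β-galactosidase enzyme fragment complementation with chemiluminescent read-out; % activity calculated relative to vehicle and maximal controls.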

First: CCOc1cccc(-c2nc3nc(Cl)c(NS(=O)(=O)c4ccc(C(F)F)cc4)nc3n2-c2c(OC)cccc2OC)n1 [Example 106, N-(5-Chloro-1-(2,6-dimethoxyphenyl)-2-(6-ethoxypyridin-2-yl)-1H-imidazo[4,5-b]pyrazin-6-yl)-4-(difluoromethyl)benzenesulfonamide]
Second: CCOc1cccc(-c2nc3nc(Cl)c(NS(=O)(=O)Cc4ccc(F)cc4)nc3n2-c2c(OC)cccc2OC)n1 [Example 108, N-(5-Chloro-1-(2,6-dimethoxyphenyl)-2-(6-ethoxypyridin-2-yl)-1H-imidazo[4,5-b]pyrazin-6-yl)-1-(4-fluorophenyl)methanesulfonamide]
The EC50 of the first is higher: 1 to 100 nM for the first, less than 1 nM for the second. The second is the more potent here.

First: CCOc1cccc(-c2nc3nc(Cl)c(NS(=O)(=O)Cc4ccc(C)c(F)c4)nc3n2-c2c(OC)cccc2OC)n1 [Example 107, N-(5-Chloro-1-(2,6-dimethoxyphenyl)-2-(6-ethoxypyridin-2-yl)-1H-imidazo[4,5-b]pyrazin-6-yl)-1-(3-fluoro-4-methylphenyl)methanesulfonamide]
Second: CCOc1cccc(-c2nc3nc(Cl)c(NS(=O)(=O)Cc4ccc(C)cn4)nc3n2-c2c(OC)cccc2OC)n1 [Example 114, N-(5-Chloro-1-(2,6-dimethoxyphenyl)-2-(6-ethoxypyridin-2-yl)-1H-imidazo[4,5-b]pyrazin-6-yl)-1-(5-methylpyridin-2-yl)methanesulfonamide]
The EC50 of the first is lower: less than 1 nM for the first, 1 to 100 nM for the second. The first is the more potent here.

Compared with CCOc1cccc(-c2nc3nc(Cl)c(NS(=O)(=O)Cc4ncccn4)nc3n2-c2c(OC)cccc2OC)n1 [Example 109, N-(5-Chloro-1-(2,6-dimethoxyphenyl)-2-(6-ethoxypyridin-2-yl)-1H-imidazo[4,5-b]pyrazin-6-yl)-1-(pyrimidin-2-yl)methanesulfonamide], CCOc1cccc(-c2nc3nnc(NS(=O)(=O)Cc4ncccn4)cc3n2-c2c(OC)cccc2OC)n1 [Example 127, N-(5-(2,6-Dimethoxyphenyl)-6-(6-ethoxypyridin-2-yl)-5H-imidazo[4,5-c]pyridazin-3-yl)-1-(pyrimidin-2-yl)methanesulfonamide] is lower in EC50: 1 to 100 nM for the first, less than 1 nM for the second.

Compared with CC#CCS(=O)(=O)Nc1nc2c(nc1Cl)nc(-c1cccc(OCC)n1)n2-c1c(OC)cccc1OC [Example 110, N-(5-Chloro-1-(2,6-dimethoxyphenyl)-2-(6-ethoxypyridin-2-yl)-1H-imidazo[4,5-b]pyrazin-6-yl)but-2-yne-1-sulfonamide], CCOc1cccc(-c2nc3nc(Cl)c(NS(=O)(=O)CC4(O)CC4)nc3n2-c2c(OC)cccc2OC)n1 [Example 113, N-(5-Chloro-1-(2,6-dimethoxyphenyl)-2-(6-ethoxypyridin-2-yl)-1H-imidazo[4,5-b]pyrazin-6-yl)-1-(1-hydroxycyclopropyl)methanesulfonamide] is higher in EC50: less than 1 nM for the first, 1 to 100 nM for the second. The first is the more potent here.

Compared with CCOc1cccc(-c2nc3nc(Cl)c(NS(=O)(=O)C4CCOCC4)nc3n2-c2c(OC)cccc2OC)n1 [Example 111, N-(5-Chloro-1-(2,6-dimethoxyphenyl)-2-(6-ethoxypyridin-2-yl)-1H-imidazo[4,5-b]pyrazin-6-yl)tetrahydro-2H-pyran-4-sulfonamide], CCOc1cccc(-c2nc3nc(Cl)c(NS(=O)(=O)N(C)C4CC4)nc3n2-c2c(OC)cccc2OC)n1 [Example 112, N-(5-Chloro-1-(2,6-dimethoxyphenyl)-2-(6-ethoxypyridin-2-yl)-1H-imidazo[4,5-b]pyrazin-6-yl)-N′-methyl-N′-cyclopropylsulfamide] is lower in EC50: 1 to 100 nM for the first, less than 1 nM for the second.

CCOc1cccc(-c2nc3nc(Cl)c(NS(=O)(=O)C[C@H]4C[C@](C)(O)C4)nc3n2-c2c(OC)cccc2OC)n1 [Example 115, N-(5-Chloro-1-(2,6-dimethoxyphenyl)-2-(6-ethoxypyridin-2-yl)-1H-imidazo[4,5-b]pyrazin-6-yl)-1-((1r,3r)-3-hydroxymethylcyclobutyl) methanesulfonamide] and CCOc1cccc(-c2nc3nnc(NS(=O)(=O)CC4CC(C)(O)C4)cc3n2-c2c(OC)cccc2OC)n1 (centres unmarked) [Example 128, N-(5-(2,6-Dimethoxyphenyl)-6-(6-ethoxypyridin-2-yl)-5H-imidazo[4,5-c]pyridazin-3-yl)-1-(3-hydroxy-3-methylcyclobutyl)methanesulfonamide] cannot be ordered by EC50: less than 1 nM for the first, less than 1 nM for the second.

CCOc1cccc(-c2nc3nc(Cl)c(NS(=O)(=O)N4CCC(O)CC4)nc3n2-c2c(OC)cccc2OC)n1 [Example 116, N-(5-Chloro-1-(2,6-dimethoxyphenyl)-2-(6-ethoxypyridin-2-yl)-1H-imidazo[4,5-b]pyrazin-6-yl)-4-hydroxypiperidine-1-sulfonamide] and CCOc1cccc(-c2nc3nc(Cl)c(NS(=O)(=O)C4CC4)nc3n2-c2c(OC)cncc2OC)n1 [Example 118, N-(5-Chloro-1-(3,5-dimethoxypyridin-4-yl)-2-(6-ethoxypyridin-2-yl)-1H-imidazo[4,5-b]pyrazin-6)cyclopropanesulfonamide] fall in the same range of EC50: 1 to 100 nM for the first, 1 to 100 nM for the second.

First: CCOc1cccc(-c2nc3nc(Cl)c(NS(C)(=O)=O)nc3n2-c2c(OC)cncc2OC)n1 [Example 117, N-(5-Chloro-1-(3,5-dimethoxypyridin-4-yl)-2-(6-ethoxypyridin-2-yl)-1H-imidazo[4,5-b]pyrazin-6-yl)methanesulfonamide]
Second: COc1cccc(OC)c1-n1c(-c2cncc(C)c2)nc2ncc(NS(C)(=O)=O)nc21 [Example 132, N-(1-(2,6-dimethoxyphenyl)-2-(5-methylpyridin-3-yl)-1H-imidazo[4,5-b]pyrazin-6-yl)methanesulfonamide]
The EC50 of the first is lower: 1 to 100 nM for the first, 100 to 10000 nM for the second.

CCOc1cccc(-c2nc3nnc(NS(=O)(=O)C4CC4)cc3n2-c2c(OC)cccc2OC)n1 [Example 119, N-(7-(2,6-Dimethoxyphenyl)-8-(6-ethoxypyridin-2-yl)-7H-imidazo[4,5-c]pyridazinyl)cyclopropanesulfonamide] and CCOc1cccc(-c2nc3nnc(NS(=O)(=O)N4CCOCC4)cc3n2-c2c(OC)cccc2OC)n1 [Example 121, N-(7-(2,6-Dimethoxyphenyl)-8-(6-ethoxypyridin-2-yl)-7H-imidazo[4,5-c]pyridazinyl)morpholine-4-sulfonamide] fall in the same range of EC50: 1 to 100 nM for the first, 1 to 100 nM for the second.

CCOc1cccc(-c2nc3nnc(NS(=O)(=O)c4ccc(F)cn4)cc3n2-c2c(OC)cccc2OC)n1 [Example 120, N-(7-(2,6-Dimethoxyphenyl)-8-(6-ethoxypyridin-2-yl)-7H-imidazo[4,5-c]pyridazinyl)-5-fluoropyridine-2-sulfonamide] and CCOc1cccc(-c2nc3nnc(NS(=O)(=O)Cc4ccc(F)cn4)cc3n2-c2c(OC)cccc2OC)n1 [Example 125, N-(7-(2,6-Dimethoxyphenyl)-8-(6-ethoxypyridin-2-yl)-7H-imidazo[4,5-c]pyridazinyl)-1-(5-fluoropyridin-2-yl)methanesulfonamide] cannot be ordered by EC50: less than 1 nM for the first, less than 1 nM for the second.

CCOc1cccc(-c2nc3nnc(NS(=O)(=O)Cc4ccc(F)cc4)cc3n2-c2c(OC)cccc2OC)n1 [Example 122, N-(7-(2,6-Dimethoxyphenyl)-8-(6-ethoxypyridin-2-yl)-7H-imidazo[4,5-c]pyridazinyl)-1-(4-fluorophenyl)methanesulfonamide] and CCOc1cccc(-c2nc3nnc(NS(=O)(=O)Cc4ccc(Cl)cn4)cc3n2-c2c(OC)cccc2OC)n1 [Example 123, 1-(5-Chloropyridin-2-yl)-N-(7-(2,6-dimethoxyphenyl)-8-(6-ethoxypyridin-2-yl)-7H-imidazo[4,5-c]pyridazinyl)methanesulfonamide] cannot be ordered by EC50: less than 1 nM for the first, less than 1 nM for the second.

CCOc1cccc(-c2nc3nnc(NS(=O)(=O)Cc4ccc(C)cn4)cc3n2-c2c(OC)cccc2OC)n1 [Example 124, N-(7-(2,6-Dimethoxyphenyl)-8-(6-ethoxypyridin-2-yl)-7H-imidazo[4,5-c]pyridazinyl)-1-(5-methylpyridin-2-yl)methanesulfonamide] and CCOc1cccc(-c2nc3nnc(NS(=O)(=O)Cc4ncc(C)cn4)cc3n2-c2c(OC)cccc2OC)n1 [Example 126, N-(7-(2,6-Dimethoxyphenyl)-8-(6-ethoxypyridin-2-yl)-7H-imidazo[4,5-c]pyridazinyl)-1-(5-methylpyrimidin-2-yl)methanesulfonamide] cannot be ordered by EC50: less than 1 nM for the first, less than 1 nM for the second.

First: CCOc1cccc(-c2nc3nnc(NS(=O)(=O)Cc4ncc(O)cn4)cc3n2-c2c(OC)cccc2OC)n1 [Example 129, N-(7-(2,6-Dimethoxyphenyl)-8-(6-ethoxypyridin-2-yl)-7H-imidazo[4,5-c]pyridazinyl)-1-(5-hydroxypyrimidin-2-yl)methanesulfonamide]
Second: COc1cccc(OC)c1-n1c(-c2ccc(C)o2)nc2nnc(NS(C)(=O)=O)cc21 [Example 130, N-(7-(2,6-Dimethoxyphenyl)-8-(5-methylfuran-2-yl)-7H-imidazo[4,5-c]pyridazinyl)methanesulfonamide]
The EC50 of the first is lower: 1 to 100 nM for the first, 100 to 10000 nM for the second. The first is the more potent here.

First: COc1cccc(OC)c1-n1c(-c2ccc(C)o2)nc2ncc(NS(C)(=O)=O)nc21 [Example 131, N-(1-(2,6-dimethoxyphenyl)-2-(5-methylfuran-2-yl)-1H-imidazo[4,5-b]pyrazin-6-yl)methanesulfonamide]
Second: COc1cccc(OC)c1-n1c(-c2cncc(C)c2)nc2ncc(NS(=O)(=O)C3CC3)nc21 [Example 133, N-(1-(2,6-dimethoxyphenyl)-2-(5-methylpyridin-3-yl)-1H-imidazo[4,5-b]pyrazin-6-yl)cyclopropanesulfonamide]
The EC50 of the first is lower: 1 to 100 nM for the first, 100 to 10000 nM for the second. The first is the more potent here.

For CCCOc1nc2ncc(NS(=O)(=O)c3ccccc3)nc2n1-c1c(OC)cccc1OC [Example 134, N-(1-(2,6-Dimethoxyphenyl)-2-propoxy-1H-imidazo[4,5-b]pyrazin-6-yl) benzenesulfonamide], the EC50 was 100 to 10000 nM.
